Data as given in US8389573B2, “Glycyrrhetinic acid derivatives” (Wellington Laboratories Inc., priority 2006, dated 2013).

What was measured:
[1] = tested on: SW480 cells; experiment: Western blot analysis in SW480 cells; format: cell-based, human
Method: SW-480 and HT-29 (3×10^5) cells were seeded in six-well plates in DMEM/Ham's F-12 media containing 2.5% charcoal-stripped FBS for 24 h and then treated with either the vehicle (DMSO) or the indicated compounds. Whole-cell lysates were obtained using high-salt buffer [50 mM HEPES, 500 mM NaCl, 1.5 mM MgCl2, 1 mM EGTA, 10% glycerol, and 1% Triton X-100, pH 7.5, and 5 μl/ml Protease Inhibitor Cocktail (Sigma-Aldrich)]. Protein samples were incubated at 100° C. for 2 min, separated on 10% SDS-PAGE at 120 V for 3 to 4 h in 1× running buffer (25 mM Tris-base, 192 mM glycine, and 0.1% SDS, pH 8.3), and transferred to polyvinylidene difluoride membrane (PVDF; Bio-Rad, Hercules, Calif.) at […] for 16 h at 4° C. in 1× transfer buffer (48 mM Tris-HCl, 39 mM glycine, and 0.025% SDS). The PVDF membrane was blocked in 5% TBST-Blotto (10 mM Tris-HCl, 150 mM NaCl, pH 8.0, 0.05% Triton X-100, and 5% nonfat dry milk) with gentle shaking for 30 min and was incubated in fresh 5% TBST-Blotto with 1:1000 (for caveolin-1, p27, p21, cyclin D1, Grp78), 1:500 (for KLF4, NAG-1), 1:250 (for PARP), and 1:5000 (for β-actin) primary antibody overnight with gentle shaking at 4° C. After washing with TBST for 10 min, the PVDF membrane was incubated with secondary antibody (1:5000) in 5% TBST-Blotto for 90 min. The membrane was washed with TBST for 10 min, incubated with 10 ml of chemiluminescence substrate (PerkinElmer) for 1.0 min, and exposed to Kodak X-OMAT AR autoradiography film (Eastman Kodak, Rochester, N.Y.).

[2] = tested on: SW480 colon cancer cells; experiment: Cell proliferation assay in SW480 cells; format: cell-based; details: Homo sapiens, read-out: IC50, growth inhibition / cell proliferation
Method: Human colon carcinoma cell lines SW480 and HT29 were provided by Dr. Stan Hamilton, M.D. Anderson Cancer Center (Houston, Tex.); SW-480 and HT-29 cells were maintained in Dulbecco's modified Eagle's medium nutrient mixture with Ham's F-12 (DMEM/Ham's F-12; Sigma-Aldrich, St. Louis, Mo.) with phenol red supplemented with 0.22% sodium bicarbonate, 0.011% sodium pyruvate, and 5% fetal bovine serum and 10 ml/l 100× antibiotic antimycotic solution (Sigma-Aldrich). Cells were maintained at 37° C. in the presence of 5% CO2.
SW480 and HT 29 Cells (2×10^4) were plated in 12-well plates, and media were replaced the next day with DMEM/Ham's F-12 media containing 2.5% charcoal-stripped FBS and either vehicle (DMSO) or the indicated ligand and dissolved in DMSO. Fresh media and compounds were added every 48 h. Cells were counted at the indicated times using a Coulter Z1 cell counter. Each experiment was done in triplicate, and results are expressed as means±S.E. for each determination

SMILES: COC(=O)[C@@]1(C)CC[C@]2(C)CC[C@]3(C)C(=CC(=O)[C@@H]4[C@@]5(C)C=C(C#N)C(=O)C(C)(C)[C@@H]5CC[C@]43C)[C@@H]2C1 [β-CDODA-Me, Methyl 2-cyano-3,11-dioxo-18β-oleana-1,12-dien-30-oate]
- KLF4 induction ([1]; SW480, 0.5-7.5 μM): induction
- NAG-1 induction ([1]; SW480, 24 hr): not induced
- induction of GRP78 protein (ER stress) ([1]; SW480, 24 hr): not observed
- KLF-4 induction after cotreatment with T007 ([1]; SW480, 24 hr, 10 μM T007): blocks this induction response
- down regulation of cyclin D1, p27 or PARP cleavage after cotreatment with T007 ([1]; SW480, 24 hr, 10 μM T007): does not affect
- PARP cleavage (indicator of apoptosis) ([1]; SW480, 24 hr, 0.5-5.0 μM): only observed at higher concentrations
- p27 protein ([1]; SW480, 24 hr, 0.5-5.0 μM): dose-dependent increase
- Cyclin D1 and p21 protein expression ([1]; SW480, 24 hr, 0.5 or 1 μM): unchanged
- Cyclin D1 and p21 protein expression ([1]; SW480, 24 hr, 2.5 and 5.0 μM): decreased
- caveolin-1 protein expression ([1]; SW480, treatment for 3 days): did not affect expression of caveolin-1
- IC50 [2]: 200 to 500 nM
